Measured values taken from PMC9769880, “Diverse Sensory Repertoire of Paralogous Chemoreceptors Tlp2, Tlp3, and Tlp4 in Campylobacter jejuni” (Microbiology Spectrum, 2022).
Read-outs that look alike come from different tables or passages of the source.

Key:
Tlp2 [1] = target: T1, Tlp2 (Campylobacter jejuni, UniProt Q0PBZ3); experiment: biochemical; format: binding
Protocol: (§1) His-tagged proteins (Tlp2, -3, and -4) were prepared as previously described ([11]) DNA segments encoding the periplasmic sensory domains (33 to 286 amino acids) of Tlp2 and (38 to 297 amino acids) of Tlp4 were amplified (see Table S7), ligated into pGEM-T Easy (Promega) and subcloned into pET-19b (Novagen) (see Table S6). Recombinant proteins were expressed in E. coli BL21(DE3) using 1 mM IPTG (isopropyl-β-D-thiogalactopyranoside) and purified using His-select-nickel chromatography as described previously ([8], [11]). The purity of the proteins was confirmed by SDS-PAGE and Western blot analysis with anti-His antibodies (Bio-Rad). Protein concentrations were determined using a NanoDrop spectrophotometer (Thermo Fisher).
(§2) Surface plasmon resonance (SPR) experiments were performed as described previously ([10], [11]) with the following modifications. Briefly, purified proteins were diluted to 0.15 μM in sodium acetate (pH 4.0) and immobilized onto an active flow cell of a CM5 sensor chip with a flow rate of 5 μL/min for 7 min of contact time using a standard amine coupling protocol. Immobilized protein levels for all three proteins ranged from 6028.3 to 9779.3 response units (RU) providing a minimum expected response maximum (RMax) between 20 and 50 RU for the small molecules tested. […] All ligands were prepared in PBS (pH 7.2) and serially diluted from 0.2 to 0.0125 mM. A 10-min dissociation period was allocated after the introduction of each analyte. SPR experiments were performed in single-cycle kinetics mode using the BIAcore S200 biosensor system (Cytiva) at 25°C in PBS (pH 7.2) at a flow rate of 30 μL/min. The equilibrium dissociation constant (KD) for each analyte was determined using BIAcore S200 Evaluation software with a report point 4 s after the injection stop to account for the bulk transfer of the small molecule against a large amount of immobilized protein (as shown in Fig. S5).

Tlp4 [2] = target: T2, Tlp4 (Campylobacter jejuni, UniProt Q0PBP3); experiment: biochemical; format: binding
T2 sequence (Q0PBP3 entry or part of it): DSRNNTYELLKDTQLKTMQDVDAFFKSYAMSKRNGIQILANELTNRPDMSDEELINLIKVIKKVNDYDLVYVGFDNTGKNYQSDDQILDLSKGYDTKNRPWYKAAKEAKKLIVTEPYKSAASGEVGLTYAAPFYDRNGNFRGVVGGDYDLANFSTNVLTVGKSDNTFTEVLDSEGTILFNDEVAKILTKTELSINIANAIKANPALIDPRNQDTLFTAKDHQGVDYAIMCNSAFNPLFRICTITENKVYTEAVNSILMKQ
Protocol: as §1, §2

Tlp2 [3] = target: T1, Tlp2; format: binding; conditions: yes/no binding
Protocol: (§3) Glycan (>400 monosaccharides or complex glycans) and small molecule arrays containing amino acids and salts were performed as described previously by Day et al. ([67]). Briefly, 1 μg of purified recombinant protein was complexed with anti-His antibody (Cell Signaling Technology) and rabbit anti-mouse/goat anti-rabbit Alexa 555-IgG (Thermo Scientific) at a molar ratio of 1:0.5:0.25 and then incubated on the array for […] in phosphate-buffered saline (PBS). The array slides were scanned at 488/520 nm and analyzed using InnoScan 1100 with MAPIX software. All arrays were performed in triplicate with a total of 12 data points for each glycan tested; the complete data set and MIRAGE (i.e., minimum information regarding a glycomics experiment) results are shown in Tables S3 and S8.
(§4) Table S8 - Supplementary glycan microarray document based on M IRAGE guidelines. D O I:
(§5) Classification Guidelines
(§6) 1. Sample: Glycan Binding Sample
(§7) Origin: Helicobacter pylori SS1; produced as a recombinant His - tagged protein in E.
(§8) The preparation of Tlp2,3, and 4 is explained in the Materials and Methods section:
(§9) Expression and purification of the periplasmic domain of Tlp2,3, and 4.
(§10) Sample Sample is a His Tagged protein containing only the periplasmic receptor domain of the modifications full length Tlp2,3, and 4transmembrane protein.
(§11) Please see Materials and Methods: Tlps 2/3/4 bind to a range of ligands, including […]
(§12) Proteins were complexed with mouse anti- his antibody, with secondary and tertiary AlexaFluor555 antibodies (rabbit anti-mouse, goat anti-rabbit) at a molar ratio of 4:2:1.
(§13) The protein/antibody complex was incubated on ice for 10 mins prior to placing on the Assay protocol array. Arrays were performed with 1 µg of complexed protein incubated on the array for 20 min. Arrays were then washed 3 times in Array PBS (PBS + 2mM MgCl2 + 2mM CaCl2) then dried by centrifugation for 3 min at 300 x g . Scanning was performed us ing an Innopsys InnoScan 1100AL and analyzed using Mapix (Innopsys). Yes/no binding was determined by six positive replicate spots in three replicate experiments. Positive […]
(§14) Glycan Glycans in this study are listed in Table S2 and is a published library in doi:
(§15) Glycans were prepared in one of two ways for printing:
(§16) Glycan 1. Glycans (with IDs in number/letter format; e.g. 1A, 4C, 7K) were sourced modifications commercially from Dextra Laboratories, Elicityl and Carbosythn and were made into glycoamines using the protocol published in Day et al 2009 (doi:
(§17) Glycan arrays: We only use glycan arrays as a yes/no binding tool. Due to this we look only at binding that is unambiguously above background vs lack of binding above background. Average background + 3x standard deviation of the background of 20 sets of 4 spots of DMF:DMSO only spots is applied to determine if binding observed is […]
(§18) Only spots with values equal to or greater than this value were considered as binding from data of any tested slide. These values are slide […]
(§19) Data Small molecule arrays: We only use amino acid arrays as a yes/no binding tool. Due interpretation to this we look only at binding that is unambiguously above background vs lack of binding above background. Average background + 3x standard deviation of the background of 6 spots of PBS + 2% glycerol only spots is applied to determine if […]
(§20) Only spots with values equal to or greater than this value were considered as binding from data of any tested slide. These values are slide dependent. […]

Tlp4 [4] = target: T2, Tlp4; format: binding; conditions: yes/no binding
Protocol: as §3, §4, §5, §6, §7, §8, §9, §10, §11, §12, §13, §14, §15, §16, §17, §18, §19, §20

Tlp3 = Tlp3 (Campylobacter jejuni, UniProt Q0P864); experiment: Glycan/small molecule arrays with Tlp3; conditions: yes/no binding
Sequence of Tlp3 (Q0P864 entry or part of it): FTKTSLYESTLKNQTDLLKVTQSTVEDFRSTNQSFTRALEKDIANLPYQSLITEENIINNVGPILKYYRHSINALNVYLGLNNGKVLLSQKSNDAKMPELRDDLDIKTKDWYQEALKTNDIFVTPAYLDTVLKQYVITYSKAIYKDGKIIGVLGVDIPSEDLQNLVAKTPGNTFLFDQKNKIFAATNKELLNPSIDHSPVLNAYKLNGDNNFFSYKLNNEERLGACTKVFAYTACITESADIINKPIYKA
Protocol: as §3, §4, §5, §6, §7, §8, §9, §10, §11, §12, §13, §14, §15, §16, §17, §18, §19, §20

Tlp3^LBD D169A = Tlp3^LBD D169A (Campylobacter jejuni, UniProt Q0P864, D169A); experiment: biochemical
Sequence of Tlp3^LBD D169A (Q0P864 41-290 D169A): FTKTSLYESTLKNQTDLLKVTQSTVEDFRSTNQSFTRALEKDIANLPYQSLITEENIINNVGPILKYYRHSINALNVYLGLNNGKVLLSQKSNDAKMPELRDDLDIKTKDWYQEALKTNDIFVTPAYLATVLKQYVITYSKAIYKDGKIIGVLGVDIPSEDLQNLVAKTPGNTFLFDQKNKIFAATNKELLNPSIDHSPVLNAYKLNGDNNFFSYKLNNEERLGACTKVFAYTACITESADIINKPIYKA

[5] = SPR KD, mean ± SD, NB = no binding, read-out: Tlp2 Affinity
[6] = SPR KD, mean ± SD, NB = no binding, read-out: Tlp4 Affinity

T1 sequence (Q0PBZ3 entry or part of it): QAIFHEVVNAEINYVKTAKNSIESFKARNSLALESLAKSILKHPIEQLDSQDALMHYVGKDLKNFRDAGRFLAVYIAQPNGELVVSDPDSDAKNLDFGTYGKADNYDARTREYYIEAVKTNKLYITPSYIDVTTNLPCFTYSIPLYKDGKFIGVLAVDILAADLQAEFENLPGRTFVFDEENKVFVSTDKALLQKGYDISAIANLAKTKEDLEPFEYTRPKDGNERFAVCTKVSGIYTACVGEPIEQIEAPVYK

SMILES	Kd (Tlp2 [1]; [5])	Kd (Tlp4 [2]; [6])	binding to Tlp2 on glycan/small molecule array (Tlp2 [3])	binding to Tlp4 on glycan/small molecule array (Tlp4 [4])	binding to Tlp3 on glycan/small molecule array (Tlp3)	Kd (Tlp3^LBD D169A)	Kd (Tlp2 [1])	Kd (Tlp4 [2])
C[C@H](O)[C@@H](O)[C@@H](O)[C@H](O)C=O [Fucose]	15.5 ± 0.9 µM	16.2 ± 2.2 µM	interacted	interacted	interacted	50 ± 17.6 µM		
NCCCC[C@H](N)C(=O)O [Lysine]			bound	bound	bind specifically	29.2 ± 4.9 µM	18.6 ± 1.5 µM	19.7 ± 3.9 µM
CC(=O)N[C@H]1[C@H]([C@H](O)[C@H](O)CO)OC(O)(C(=O)O)C[C@@H]1O (stereo partly drawn) [Sialic acid]	1.7 ± 0.2 µM	0.8 ± 0.1 µM	interacted	interacted	interacted	25.2 ± 8.5 µM		
